Reference: ChEMBL document CHEMBL1201862, “PubChem BioAssay data set” (2004)
One block for each compound: values may come before it. The source made the active and inactive calls.

Tests used:
[1] = biological target: T1, DNA dC->dU-editing enzyme APOBEC-3A (Homo sapiens, UniProt P31941); assay: SAR analysis of small molecule inhibitors of APOBEC3A DNA Deaminase via a fluorescence-based single-stranded DNA deaminase assay - Set 2.; assay type: functional; conditions: read-out: IC50_Mean
[2] = biological target: T2, DNA dC->dU-editing enzyme APOBEC-3G (Homo sapiens, UniProt Q9HC16); assay: SAR analysis of small molecule inhibitors of APOBEC3G DNA Deaminase via a fluorescence-based single-stranded DNA deaminase assay - Set 2.; assay type: functional; conditions: read-out: IC50_Mean
[3] = biological target: T2, DNA dC->dU-editing enzyme APOBEC-3G; assay: APOBEC3G deaminase inhibitors, SAR follow-up, biochemical, fluorescence, single-stranded DNA substrate (AID 602136); assay type: functional; conditions: read-out: IC50_Mean
[4] = biological target: T1, DNA dC->dU-editing enzyme APOBEC-3A; assay: SAR analysis of small molecule inhibitors of APOBEC3A DNA Deaminase via a fluorescence-based single-stranded DNA deaminase assay.; assay type: functional; conditions: read-out: IC50_Mean
[5] = A cell-based HTS for delayed death inhibitors of the malarial parasite plastid Measured in Microorganism System Using Plate Reader - 2126-02_Inhibitor_Dose_DryPowder_Activity.; assay type: functional, organism-based
[6] = A cell-based HTS for delayed death inhibitors of the malarial parasite plastid Measured in Microorganism System Using Plate Reader - 2126-01_Inhibitor_Dose_DryPowder_Activity.; assay type: functional, organism-based
[7] = biological target: Vascular endothelial growth factor receptor 2 (Homo sapiens, UniProt P35968); assay type: functional
Aurora kinase B = Aurora kinase B (Homo sapiens, UniProt Q96GD4); assay type: functional
[8] = biological target: Multidrug resistance protein CDR2 (Candida albicans (strain SC5314 / ATCC MYA-2876) (Yeast), UniProt P78595); assay: CaCDR2 efflux pump inhibitors in yeast, dose response, S. cerevisiae AD1-8u, singleplex, Cherry Pick1 hits (AID 588604); assay type: functional
[9] = biological target: Ribosomal protein S6 kinase alpha-3 (Homo sapiens, UniProt P51812); assay type: functional;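 also: measured within a kinome-wide profiling panel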
[10] = biological target: Protein kinase C zeta type (Homo sapiens, UniProt Q05513); assay type: functional;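 also: measured as one member of a broad kinase profiling panel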
[11] = biological target: Serine/threonine-protein kinase PLK3 (Homo sapiens, UniProt Q9H4B4); assay type: functional
[12] = biological target: RAC-gamma serine/threonine-protein kinase (Homo sapiens, UniProt Q9Y243); assay type: functional
[13] = biological target: 5'-AMP-activated protein kinase catalytic subunit alpha-1 (Homo sapiens, UniProt Q13131); assay type: functional
[14] = biological target: Protein kinase C delta type (Homo sapiens, UniProt Q05655); assay type: functional
[15] = biological target: Ribosomal protein S6 kinase beta-1 (Homo sapiens, UniProt P23443); assay type: functional;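 also: measured as one member of a kinome-wide profiling panel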
[16] = biological target: Serine/threonine-protein kinase Chk2 (Homo sapiens, UniProt O96017); assay type: functional;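 also: CHEK2 entry within a kinome-wide screening panel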
[17] = biological target: Cyclin-dependent kinase 2 (Homo sapiens, UniProt P24941); assay type: functional;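 also: CDK2 measured as one member of a broad kinome profiling panel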
[18] = biological target: Serine/threonine-protein kinase pim-1 (Homo sapiens, UniProt P11309); assay type: functional
Aurora kinase A = Aurora kinase A (Homo sapiens, UniProt O14965); assay type: functional;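 also: value from the Navigating the Kinome kinase panel profiling, panel entry STK6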
[19] = biological target: MAP kinase-activated protein kinase 2 (Homo sapiens, UniProt P49137); assay type: functional;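 also: measured as one member of a kinome-wide kinase panel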
[20] = biological target: Mast/stem cell growth factor receptor Kit (Homo sapiens, UniProt P10721); assay type: functional;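 also: KIT entry within a kinase panel assay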
[21] = biological target: Casein kinase II subunit alpha (Homo sapiens, UniProt P68400); assay type: functional
[22] = biological target: Serine/threonine-protein kinase PAK 4 (Homo sapiens, UniProt O96013); assay type: functional;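 also: value obtained within a kinome profiling panel in which PAK4 was one of the panel members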
[23] = biological target: MAP/microtubule affinity-regulating kinase 3 (Homo sapiens, UniProt P27448); assay type: functional;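 also: MARK3 affinity measured as one member of a kinome panel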
[24] = biological target: Protein kinase C gamma type (Homo sapiens, UniProt P05129); assay type: functional
[25] = biological target: Serine/threonine-protein kinase Chk1 (Homo sapiens, UniProt O14757); assay type: functional;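 also: measured as one member of a kinome-wide kinase profiling panel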
Ephrin type-A receptor 2 = Ephrin type-A receptor 2 (Homo sapiens, UniProt P29317); assay type: functional;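 also: EPHA2 tested as one member of a kinome-wide kinase panel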
[26] = biological target: RAC-alpha serine/threonine-protein kinase (Homo sapiens, UniProt P31749); assay type: functional;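 also: AKT1 affinity measured as one member of a kinome-wide kinase profiling panel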
[27] = biological target: Cyclin-dependent kinase 1 (Homo sapiens, UniProt P06493); assay type: functional;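 also: Kinome-wide panel profiling, with the target listed as panel member CDC2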
[28] = biological target: Serine/threonine-protein kinase PLK1 (Homo sapiens, UniProt P53350); assay type: functional;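 also: PLK1 measured as one member of a kinome-wide profiling panel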
[29] = biological target: Glycogen synthase kinase-3 beta (Homo sapiens, UniProt P49841); assay type: functional;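 also: value comes from a broad kinome profiling panel, with GSK3B as the panel member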
[30] = biological target: cAMP-dependent protein kinase catalytic subunit alpha (Homo sapiens, UniProt P17612); assay type: functional
[31] = biological target: Serine/threonine-protein kinase MRCK alpha (Homo sapiens, UniProt Q5VT25); assay type: functional
[32] = biological target: Fibroblast growth factor receptor 1 (Homo sapiens, UniProt P11362); assay type: functional
[33] = biological target: Tyrosine-protein kinase Lyn (Homo sapiens, UniProt P07948); assay type: functional;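 also: lyn as one member of a kinase panel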
[34] = biological target: Tyrosine-protein kinase Blk (Homo sapiens, UniProt P51451); assay type: functional;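 also: obtained as one member of a kinome-wide kinase assay panel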
[35] = biological target: 3-phosphoinositide-dependent protein kinase 1 (Homo sapiens, UniProt O15530); assay type: functional;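 also: value comes from the Navigating the Kinome panel, PDPK1 member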
[36] = biological target: Fibroblast growth factor receptor 3 (Homo sapiens, UniProt P22607); assay type: functional
[37] = biological target: Receptor tyrosine-protein kinase erbB-4 (Homo sapiens, UniProt Q15303); assay type: functional;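 also: ERBB4 member of a kinome-wide kinase profiling panel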
[38] = biological target: Inhibitor of nuclear factor kappa-B kinase subunit beta (Homo sapiens, UniProt O14920); assay type: functional
CHO-K1 = assay: (§1) Counterscreen for antagonists of the orexin 1 receptor (OX1R; HCRTR1): Homogeneous time resolved fluorescence (HTRF)-based cell-based dose response assay to identify antagonists of the parental CHO-K1 cell line. [Related pubchem assays (depositor defined):AID434989, AID435008, AID463079, AID485270, AID492963, AID492964, AID492965, AID493232, AID504699, AID504701]; assay type: functional; conditions: Cricetulus griseus
[39] = as §1, with “Fluorescence-based” for “Homogeneous time resolved fluorescence (HTRF)-based”, “cell-based high throughput” for “cell-based”, “CHO” for “CHO-K1”; assay type: functional
[40] = biological target: T3, Orexin/Hypocretin receptor type 1 (Homo sapiens, UniProt O43613); assay: Homogeneous Time Resolved Fluorescence (HTRF)-based cell-based high throughput dose response assay for antagonists of the orexin 1 receptor (OX1R; HCRTR1). [Related pubchem assays (depositor defined):AID434989, AID435008, AID463079, AID485270, AID492963, AID492964, AID492965, AID493232, AID504717, AID504718]; assay type: functional
[41] = biological target: T3, Orexin/Hypocretin receptor type 1; assay: Fluorescence-based cell-based high throughput dose response assay for antagonists of the orexin 1 receptor (OX1R; HCRTR1). [Related pubchem assays (depositor defined):AID434989, AID435008, AID463079, AID485270, AID492963, AID492964, AID492965, AID493232, AID504717, AID504718]; assay type: functional
Orexin receptor type 2 [42] = biological target: T4, Orexin receptor type 2 (Homo sapiens, UniProt O43614); assay: Counterscreen assay for antagonists of the orexin 1 receptor (OX1R; HCRTR1): Fluorescence-based cell-based dose response assay for antagonists of the orexin 2 receptor (OX2R; HCRTR2), run by assay provider.; assay type: functional
Orexin receptor type 2 [43] = biological target: T4, Orexin receptor type 2; assay: Counterscreen assay for antagonists of the orexin 1 receptor (OX1R; HCRTR1): Homogeneous Time Resolved Fluorescence (HTRF)-based cell-based dose response assay for antagonists of the orexin 2 receptor (OX2R; HCRTR2), run by assay provider.; assay type: functional
[44] = biological target: Serine/threonine-protein kinase D3 (Homo sapiens, UniProt O94806); assay type: functional;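 also: determined within a kinase panel screen, with PRKCN as the panel member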
[45] = biological target: Mitogen-activated protein kinase 8 (Homo sapiens, UniProt P45983); assay type: functional;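 also: value comes from one member of a kinome-wide kinase profiling panel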
[46] = biological target: Protein disulfide-isomerase (Homo sapiens, UniProt P07237); assay: PDI inhibitors, insulin aggregation turbidity, dose response, biochemical, absorbance, cherry-picked samples (AID 602350); assay type: functional
[47] = biological target: Sphingosine 1-phosphate receptor 1 (Homo sapiens, UniProt P21453); assay: Late-stage fluorescence-based dose-response cell-based counterscreen assay to identify agonists of the Sphingosine 1-Phosphate Receptor 4 (S1P4): Sphingosine 1-Phosphate Receptor 1 (S1P1) agonist assay Set 2.; assay type: functional
[48] = biological target: Sphingosine 1-phosphate receptor 5 (Homo sapiens, UniProt Q9H228); assay: S1P5 receptor agonists, human, late-stage follow-up, counter-screen for S1P4 agonist project, cell-based, fluorescence, set 2 (AID 504867); assay type: functional
[49] = biological target: Sphingosine 1-phosphate receptor 3 (Homo sapiens, UniProt Q99500); assay: Late-stage fluorescence-based dose-response cell-based counterscreen assay to identify agonists of the Sphingosine 1-Phosphate Receptor 4 (S1P4): Sphingosine 1-Phosphate Receptor 3 (S1P3) agonist assay Set 2.; assay type: functional
[50] = biological target: Sphingosine 1-phosphate receptor 2 (Homo sapiens, UniProt O95136); assay: S1P2 receptor agonists, human, late-stage follow-up, counter-screen for S1P4 agonist project, cell-based, fluorescence, set 2 (AID 504873); assay type: functional
LIM domain kinase 1 = LIM domain kinase 1 (Homo sapiens, UniProt P53667); assay: Navigating the Kinome. Panel member name: LIMK1; assay type: functional

Chain of Serine/threonine-protein kinase pim-1 (P11309 whole entry): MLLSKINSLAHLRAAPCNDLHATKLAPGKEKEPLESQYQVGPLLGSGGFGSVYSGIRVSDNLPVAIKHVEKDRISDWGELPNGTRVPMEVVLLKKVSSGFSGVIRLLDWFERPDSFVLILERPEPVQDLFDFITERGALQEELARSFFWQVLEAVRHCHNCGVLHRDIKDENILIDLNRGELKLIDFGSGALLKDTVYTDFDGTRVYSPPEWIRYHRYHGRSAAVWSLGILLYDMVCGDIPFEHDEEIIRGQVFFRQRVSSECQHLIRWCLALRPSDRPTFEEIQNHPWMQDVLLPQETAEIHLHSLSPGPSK
Chain of Mast/stem cell growth factor receptor Kit (P10721 whole entry): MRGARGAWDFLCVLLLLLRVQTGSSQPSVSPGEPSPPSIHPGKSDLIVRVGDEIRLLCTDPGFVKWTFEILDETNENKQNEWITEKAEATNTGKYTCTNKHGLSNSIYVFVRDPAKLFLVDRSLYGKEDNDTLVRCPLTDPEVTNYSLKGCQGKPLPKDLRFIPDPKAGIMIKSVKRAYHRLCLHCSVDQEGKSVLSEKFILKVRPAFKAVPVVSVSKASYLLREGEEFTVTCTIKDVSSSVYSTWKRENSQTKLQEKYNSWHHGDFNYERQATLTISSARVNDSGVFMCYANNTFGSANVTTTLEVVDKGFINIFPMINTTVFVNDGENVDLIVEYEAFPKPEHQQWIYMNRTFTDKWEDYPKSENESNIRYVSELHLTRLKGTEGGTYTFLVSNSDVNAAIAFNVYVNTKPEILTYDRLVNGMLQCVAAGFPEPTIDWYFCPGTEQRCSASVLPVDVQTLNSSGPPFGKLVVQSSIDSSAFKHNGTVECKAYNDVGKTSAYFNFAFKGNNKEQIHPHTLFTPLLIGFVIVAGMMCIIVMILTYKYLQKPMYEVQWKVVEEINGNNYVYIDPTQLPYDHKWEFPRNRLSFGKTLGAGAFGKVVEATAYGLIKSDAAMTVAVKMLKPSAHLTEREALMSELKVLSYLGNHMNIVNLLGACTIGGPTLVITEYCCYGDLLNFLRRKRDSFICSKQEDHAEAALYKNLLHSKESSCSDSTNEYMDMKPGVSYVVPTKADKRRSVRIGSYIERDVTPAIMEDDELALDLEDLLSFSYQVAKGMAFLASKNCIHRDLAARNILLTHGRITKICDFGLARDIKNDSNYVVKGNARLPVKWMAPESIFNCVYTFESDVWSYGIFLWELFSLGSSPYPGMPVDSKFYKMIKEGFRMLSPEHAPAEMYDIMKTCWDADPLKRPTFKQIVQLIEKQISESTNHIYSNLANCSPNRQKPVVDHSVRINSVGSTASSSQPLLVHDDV
Chain of MAP/microtubule affinity-regulating kinase 3 (P27448 whole entry): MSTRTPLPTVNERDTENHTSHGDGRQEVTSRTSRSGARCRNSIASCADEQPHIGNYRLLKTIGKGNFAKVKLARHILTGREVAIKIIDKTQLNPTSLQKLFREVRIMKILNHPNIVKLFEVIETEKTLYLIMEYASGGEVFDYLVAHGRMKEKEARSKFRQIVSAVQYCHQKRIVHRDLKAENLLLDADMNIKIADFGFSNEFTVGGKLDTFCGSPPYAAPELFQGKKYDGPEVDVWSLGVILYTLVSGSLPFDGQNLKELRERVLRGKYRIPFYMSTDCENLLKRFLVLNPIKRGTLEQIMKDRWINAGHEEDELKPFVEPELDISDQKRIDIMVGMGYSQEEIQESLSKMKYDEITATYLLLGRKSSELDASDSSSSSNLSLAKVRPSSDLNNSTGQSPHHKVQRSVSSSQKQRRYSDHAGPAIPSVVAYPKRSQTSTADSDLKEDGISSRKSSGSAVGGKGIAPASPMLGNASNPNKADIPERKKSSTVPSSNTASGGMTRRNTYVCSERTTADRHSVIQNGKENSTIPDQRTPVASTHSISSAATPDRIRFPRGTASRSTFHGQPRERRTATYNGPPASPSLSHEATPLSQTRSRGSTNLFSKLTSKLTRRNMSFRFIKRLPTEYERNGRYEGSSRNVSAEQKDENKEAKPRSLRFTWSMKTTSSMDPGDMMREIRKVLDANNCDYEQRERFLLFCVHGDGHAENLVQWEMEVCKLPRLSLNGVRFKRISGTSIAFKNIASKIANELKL
Chain of RAC-alpha serine/threonine-protein kinase (P31749 whole entry): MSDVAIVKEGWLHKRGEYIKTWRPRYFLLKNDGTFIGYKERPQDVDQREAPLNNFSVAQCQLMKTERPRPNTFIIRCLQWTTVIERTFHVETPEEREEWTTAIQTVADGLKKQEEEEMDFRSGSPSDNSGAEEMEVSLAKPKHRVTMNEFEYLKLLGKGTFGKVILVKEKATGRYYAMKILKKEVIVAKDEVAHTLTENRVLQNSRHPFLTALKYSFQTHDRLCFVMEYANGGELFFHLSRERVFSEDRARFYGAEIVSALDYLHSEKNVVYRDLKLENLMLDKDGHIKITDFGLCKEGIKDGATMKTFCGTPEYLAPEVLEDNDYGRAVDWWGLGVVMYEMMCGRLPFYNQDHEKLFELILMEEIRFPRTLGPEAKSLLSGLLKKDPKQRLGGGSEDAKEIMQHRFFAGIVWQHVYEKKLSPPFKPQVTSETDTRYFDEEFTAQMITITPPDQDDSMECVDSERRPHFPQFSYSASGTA
T4 sequence (O43614 whole entry): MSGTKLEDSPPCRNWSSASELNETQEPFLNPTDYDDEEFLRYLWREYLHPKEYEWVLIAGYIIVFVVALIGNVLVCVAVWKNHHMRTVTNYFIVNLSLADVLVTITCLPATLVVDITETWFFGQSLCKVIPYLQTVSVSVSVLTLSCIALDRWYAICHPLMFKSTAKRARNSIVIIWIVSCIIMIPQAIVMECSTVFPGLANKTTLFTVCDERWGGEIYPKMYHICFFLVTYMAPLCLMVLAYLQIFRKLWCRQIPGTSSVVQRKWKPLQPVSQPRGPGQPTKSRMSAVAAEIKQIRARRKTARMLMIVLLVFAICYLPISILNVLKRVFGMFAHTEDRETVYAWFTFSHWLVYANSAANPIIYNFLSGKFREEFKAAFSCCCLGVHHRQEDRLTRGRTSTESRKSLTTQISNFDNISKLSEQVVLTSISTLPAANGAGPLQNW
T2 sequence (Q9HC16 whole entry): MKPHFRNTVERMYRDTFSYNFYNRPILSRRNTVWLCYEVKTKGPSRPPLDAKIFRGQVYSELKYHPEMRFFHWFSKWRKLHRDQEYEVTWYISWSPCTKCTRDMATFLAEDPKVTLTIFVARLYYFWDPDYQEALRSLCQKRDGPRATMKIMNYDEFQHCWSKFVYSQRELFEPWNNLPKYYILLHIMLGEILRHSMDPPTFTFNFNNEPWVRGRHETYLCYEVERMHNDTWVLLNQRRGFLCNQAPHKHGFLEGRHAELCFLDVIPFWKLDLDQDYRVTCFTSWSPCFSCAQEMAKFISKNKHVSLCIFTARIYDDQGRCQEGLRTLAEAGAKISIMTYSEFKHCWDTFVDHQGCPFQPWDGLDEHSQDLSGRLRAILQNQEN
Chain of Protein kinase C delta type (Q05655 whole entry): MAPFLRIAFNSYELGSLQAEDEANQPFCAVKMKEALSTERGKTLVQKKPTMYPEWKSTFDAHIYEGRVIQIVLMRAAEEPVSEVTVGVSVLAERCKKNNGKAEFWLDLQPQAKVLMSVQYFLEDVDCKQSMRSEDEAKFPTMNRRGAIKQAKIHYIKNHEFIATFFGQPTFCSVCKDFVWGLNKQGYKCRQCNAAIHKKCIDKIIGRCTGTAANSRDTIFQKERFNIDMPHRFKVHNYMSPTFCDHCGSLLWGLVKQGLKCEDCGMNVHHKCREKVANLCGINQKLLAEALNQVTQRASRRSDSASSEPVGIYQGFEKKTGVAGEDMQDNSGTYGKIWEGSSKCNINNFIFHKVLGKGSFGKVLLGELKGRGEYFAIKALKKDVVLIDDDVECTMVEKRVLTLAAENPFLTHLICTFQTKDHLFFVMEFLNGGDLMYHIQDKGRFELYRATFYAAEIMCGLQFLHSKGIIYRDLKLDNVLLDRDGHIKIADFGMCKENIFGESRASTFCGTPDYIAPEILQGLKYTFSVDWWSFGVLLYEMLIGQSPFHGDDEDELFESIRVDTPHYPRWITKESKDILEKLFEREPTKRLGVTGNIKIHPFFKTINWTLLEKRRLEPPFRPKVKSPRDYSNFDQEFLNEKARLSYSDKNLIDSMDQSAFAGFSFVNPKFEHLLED
T1 sequence (P31941 whole entry): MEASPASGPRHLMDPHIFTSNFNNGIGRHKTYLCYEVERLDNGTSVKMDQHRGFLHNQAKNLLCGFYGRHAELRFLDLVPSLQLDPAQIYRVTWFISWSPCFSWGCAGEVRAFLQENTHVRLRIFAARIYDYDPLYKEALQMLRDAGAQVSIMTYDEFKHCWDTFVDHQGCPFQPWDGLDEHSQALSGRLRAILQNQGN

SMILES: COc1cc(C=Nn2c(S)nnc2-c2[nH]nc3c2CCC3)ccc1O
IC50 [1]: > 99 µM (inactive)
IC50 [2]: 0.732 µM (active)
IC50 [3]: 0.808 µM (active)
IC50 [4]: > 99 µM (inactive)

SMILES: C[C@@H]1CN([C@@H](C)CO)C(=O)c2cc(NC(=O)Nc3ccccc3)ccc2O[C@@H](C)CCCCO[C@H]1CN(C)S(=O)(=O)c1ccccc1F
AC50 [5]: 0.641 µM (active)
AC50 [6]: 0.924 µM (active)

Ki [7]: 3.98 µM (active)
Ki (Aurora kinase B): 0.316 µM (active)
SMILES: COc1cc(Nc2ncnc(Nc3cc[nH]n3)n2)cc(OC)c1OC

SMILES: O=[N+]([O-])c1cc(/C=N\Nc2ccccn2)ccc1Cl
EC50 [8]: 9.33 µM (active)

Ki [9]: 5.01 µM (active)
Ki [10]: > 7.94 µM (inactive)
Ki [11]: > 7.94 µM (inactive)
Ki [12]: > 10 µM (inactive)
Ki [13]: 7.94 µM (active)
Ki [14]: > 7.94 µM (inactive)
Ki [15]: 0.501 µM (active)
Ki [16]: > 10 µM (inactive)
Ki [17]: > 7.94 µM (inactive)
Ki [18]: > 10 µM (inactive)
Ki (Aurora kinase A): > 6.31 µM (inactive)
Ki [19]: > 7.94 µM (inactive)
Ki [20]: 1 µM (active)
Ki [21]: > 6.31 µM (inactive)
Ki [22]: > 5.01 µM (inactive)
Ki [23]: > 6.31 µM (inactive)
Ki [24]: > 7.94 µM (inactive)
Ki [25]: > 7.94 µM (inactive)
Ki (Ephrin type-A receptor 2): > 7.94 µM (inactive)
Ki [26]: 6.31 µM (active)
Ki [27]: > 7.94 µM (inactive)
Ki [28]: > 7.94 µM (inactive)
Ki [29]: 1.58 µM (active)
Ki [30]: > 7.94 µM (inactive)
Ki [31]: > 10 µM (inactive)
SMILES: COc1ccc(OC)c(CNC(=O)c2cc(N)c(C#N)c(OC(C)C)n2)c1

SMILES: c1ccc(-c2n[nH]cc2-c2ccncc2)cc1
Ki [11]: > 20 µM (inactive)
Ki [12]: 10 µM (active)
Ki [13]: > 25.1 µM (inactive)
Ki [14]: 2.51 µM (active)
Ki [15]: 2.51 µM (active)
Ki [16]: > 25.1 µM (inactive)
Ki [18]: 20 µM (active)
Ki (Aurora kinase A): 6.31 µM (active)
Ki [19]: > 20 µM (inactive)
Ki [20]: > 3.16 µM (inactive)
Ki [21]: > 15.8 µM (inactive)
Ki [22]: > 12.6 µM (inactive)
Ki [32]: 10 µM (active)
Ki [33]: 2 µM (active)
Ki [34]: > 3.98 µM (inactive)
Ki [23]: 7.94 µM (active)
Ki [24]: > 20 µM (inactive)
Ki [25]: > 20 µM (inactive)
Ki (Ephrin type-A receptor 2): > 20 µM (inactive)
Ki [26]: 7.94 µM (active)
Ki [27]: 10 µM (active)
Ki [35]: > 10 µM (inactive)
Ki [36]: > 5.01 µM (inactive)
Ki [28]: > 20 µM (inactive)
Ki [29]: 0.251 µM (active)
Ki [37]: 1 µM (active)
Ki [30]: 0.794 µM (active)
Ki [31]: 1.26 µM (active)
Ki [38]: > 7.94 µM (inactive)

SMILES: CC(=O)Nc1cccc(OCC(=O)NC(C)c2ccc3ccccc3c2)c1 (stereo not drawn)
IC50 (CHO-K1): > 66.2 µM (inactive)
IC50 [39]: > 49.7 µM (inactive)
IC50 [40]: 0.623 µM (active)
IC50 [41]: 9.01 µM (active)
IC50 (Orexin receptor type 2 [42]): 30 µM (inactive)
IC50 (Orexin receptor type 2 [43]): > 50 µM (inactive)

Ki [44]: 6.31 µM (active)
Ki [45]: 1.58 µM (active)
SMILES: CC(=O)Nc1cc(N)c(C#N)c(OCC(C)C)n1

AC50 [46]: 19.5 µM (active)
SMILES: Cc1noc(C)c1S(=O)(=O)Nc1ccc2c(c1)CC(=O)N([C@@H](C)CO)C[C@H](C)[C@H](CN(C)S(=O)(=O)c1ccc(F)cc1)O2

EC50 [47]: 0.72 µM (active)
EC50 [48]: 0.144 µM (active)
EC50 [49]: > 25 µM (inactive)
EC50 [50]: 3.65 µM (active)
SMILES: C/N=C1/S/C(=C/c2cc(C)n(Cc3ccccc3)c2C)C(=O)N1C

Ki [18]: 5.01 µM (active)
Ki (LIM domain kinase 1): 2.51 µM (active)
SMILES: COc1ccccc1NC(=O)c1cnn2c(-c3ccccc3)ccnc12
